# Experimental data: patent US20210253518A1, “KINASE INHIBITOR” (NISSAN CHEMICAL CORPORATION, priority 2018, published 2021)
# How the values were obtained:
# [1] = tested on: YAP protein; test: Imaging analysis of nuclear translocation in human bone marrow-derived mesenchymal stem cells; assay type: cell-based; conditions: 10 μM, 4 hr, no addition 8.96
# Experimental: (§1) Nine fields of view were imaged per well using a 20× objective lens of Operatta CLS. The cell nucleus region and the cytoplasm region were identified from the obtained fluorescence images by using the analysis software Harmony (manufactured by PerkinElmer), and AlexaFluor® 647 fluorescence intensity per unit area and the AlexaFluor® 555 fluorescence intensity per unit area in each region were extracted. The nuclear translocation was evaluated by calculating the ratio of the fluorescence intensity of the cell nucleus region to the fluorescence intensity of the cytoplasmic region from the extracted values. The value becomes greater than 1 as the YAP protein and TAZ protein transfer into the cell nucleus, and less than 1 when localized in the cytoplasm.
# (§2) Compounds k-1:B-1, k-1:H-1, and k-1:J-1 were evaluated for nuclear translocation of YAP protein and TAZ protein. For the nuclear translocation, imaging analysis was performed using the human bone marrow-derived mesenchymal stem cells (manufactured by PromoCell) and OperettaCLS (manufactured by PerkinElmer) described in Example 4. The compounds were added such that the final concentration of the test concentration of k-1:B-1, k-1:H-1, and k-1:J-1 was 10 μM.
# (§3) Human bone marrow-derived mesenchymal stem cells cultured according to the protocol recommended by PromoCell were seeded on a 96-well plate (manufactured by PerkinElmer, CellCarrier-Ultra) at 25,000 cells/90 μL/well on the cycloolefin bottom surface, and cultured in a CO2 incubator (37° C., 5% CO2) for 1 day. After culturing, k-1:B-1, k-1:H-1, and k-1:J-1 solutions having a concentration of 100 μM were added. The cells were cultured in a CO2 incubator at 37° C. for 4 hr. The medium was exchanged with 4% para-formaldehyde solution, and the cells were fixed by allowing to stand at room temperature for 10 min. The fixed cells were subjected to immunostaining by the method described in Example 4.
# [2] = tested on: TAZ protein; test: as above; assay type: cell-based; conditions: 10 μM, 4 hr, no addition 10.05
# Experimental: as §1, §2, §3
# [3] = tested on: YAP protein; test: Imaging analysis of nuclear translocation in SKOV3 cells; assay type: cell-based, human; conditions: 10 μM, 4 hr, ratio of fluorescence intensity nucleus/cytoplasm, no addition 6.15
# Experimental: as §2, with “ovarian cancer cell line SKOV3” for “bone marrow-derived mesenchymal stem cells”, “DS Pharma Biomedical Co., Ltd)” for “PromoCell)”, “below.” for “in Example 4.”
# (§4) Human ovarian cancer cell line SKOV3 cultured according to the protocol recommended by DS Pharma Biomedical Co., Ltd. was seeded on a 96-well plate (manufactured by PerkinElmer, CellCarrier-Ultra) at 15,000 cells/90 μL/well on the cycloolefin bottom surface, and cultured in a CO2 incubator (37° C., 5% CO2) for 1 day. After culturing, 10 μL of k-1:B-1, k-1:H-1, and k-1:J-1 solutions having a concentration of 100 μM and dissolved in DMSO was added. The cells were further cultured in a CO2 incubator at 37° C. for 4 hr. The medium was exchanged with 4% para-formaldehyde, and the cells were fixed by allowing to stand at room temperature for 10 min. The fixed cells were subjected to immunostaining with AlexaFluor® 647-labeled YAP antibody (manufactured by Cell Signaling Technology), anti-mouse TAZ (D-8) antibody (manufactured by SantaCruz), AlexaFluor® 555-labeled anti-mouse IgG antibody (manufactured by Thermo Fisher Scientific), according to the recommended protocol produced by Cell Signaling Technology, and the cell nucleus was further stained with 10 μg/mL Hoechst33342 solution.
# as §1
# (§5) The specific compound used in the present invention was evaluated for the nuclear translocation of YAP protein and TAZ protein. For the nuclear translocation, imaging analysis was performed using the human ovarian cancer cell line SKOV3 (DS Pharma Biomedical Co., Ltd) and OperettaCLS (PerkinElmer) described below. The specific compound was added such that the final concentration of the test concentration of the compound used in the present invention was 10 μM.
# (§6) Human ovarian cancer cell line SKOV3 cultured according to the protocol recommended by DS Pharma Biomedical Co., Ltd. was seeded on a 96-well plate (PerkinElmer, CellCarrier-Ultra) at 15,000 cells/90 μL/well on the cycloolefin bottom surface, and cultured in a CO2 incubator (37° C., 5% CO2) for 1 day. After culturing, a solution of the specific compound used in the present invention dissolved in DMSO was added. The cells were further cultured in a CO2 incubator at 37° C. for 4 hr, the medium was exchanged with 4% para-formaldehyde, and the cells were fixed by allowing to stand at room temperature for 10 min. The fixed cells were subjected to immunostaining with AlexaFluor® 647-labeled YAP antibody (Cell Signaling Technology), anti-mouse TAZ (D-8) antibody (SantaCruz), AlexaFluor® 555-labeled anti-mouse IgG antibody (Thermo Fisher Scientific), according to the recommended protocol produced by Cell Signaling Technology, and the cell nucleus was further stained with 10 μg/mL Hoechst33342 solution.
# (§7) Nine fields of view were imaged per well using a 20× objective lens of Operatta CLS. […]
# [4] = tested on: TAZ protein; test: as above; assay type: cell-based, human; conditions: 10 μM, 4 hr, ratio of fluorescence intensity nucleus/cytoplasm, no addition 6.98
# Experimental: Compounds k-1:B-1, k-1:H-1, and k-1:J-1 were evaluated for nuclear translocation of YAP protein and TAZ protein. For the nuclear translocation, imaging analysis was performed using the human ovarian cancer cell line SKOV3 (manufactured by DS Pharma Biomedical Co., Ltd) and OperettaCLS (manufactured by PerkinElmer) described below. The compounds were added such that the final concentration of the test concentration of k-1:B-1, k-1:H-1, and k-1:J-1 was 10 μM.
# as §4, §1, §5, §6, §7
Structure (SMILES),YAP nuclear translocation rate [1],TAZ nuclear translocation rate [2],YAP nuclear translocation rate [3],TAZ nuclear translocation rate [4]
CC/C(=N\NC(=O)C(C)Nc1ccccc1)c1ccc(O)c(C)c1O (stereo not drawn) [k-1:B-1],10.17,11.59,6.98,7.93
CCC(=NNC(=O)CNc1ccccc1)c1ccc(O)c(C)c1O [k-1:H-1],11.55,13.42,7.60,8.84
CC/C(=N\NC(=O)NCc1cccc(O)c1)c1ccc(O)c(C)c1O [k-1:J-1],12.70,14.95,7.92,9.14
